In one experiment the test system is C. albicans. Put plainly: Minimum fungicidal concentration of iodopovidone. Type of experiment: cell-based.
A further experiment deals with E. Coli. In words: Minimum bactericidal concentration of iodopovidone. Format: cell-based.

Substance iodopovidone displayed a minimum fungicidal concentration with C. albicans of 1 mM. The substance further came in with a minimum bactericidal concentration in the experiment with E. Coli of 2 mM.
